We go through six sequences from PMC10522709, “Rational design and characterization of cell-selective antimicrobial peptides based on a bioactive peptide from Crocodylus siamensis hemoglobin” (Scientific Reports, 2023).

Usually MIC stands for the lowest concentration found to suppress growth. The MBC is the smallest concentration meeting the test's criterion for killing. A low value points to more potent killing.

Type in all cases: cell-based
Data set [1] concerns Escherichia coli (ATCC 25922). As to conditions: ATCC 25922, 18 h. The procedure: (§1) Broth microdilution assays were performed as reported previously. In short, the bacteria including Escherichia coli (ATCC 25922), Klebsiella pneumoniae (ATCC 27736), Pseudomonas aeruginosa (ATCC 27853), Bacillus subtilis (ATCC 6633), Staphylococcus aureus (ATCC 25923) and Staphylococcus epidermidis (ATCC 12228) were grown in Nutrient broth to mid-log phase at 37 °C. The bacterial suspension (50 μL, concentration of 1 × 10^6 CFU/mL) was loaded into a well with serially diluted peptide (50 µL, final concentrations ranging from 0–200 μg/mL) in a sterile 96-well plate and incubated at 37 °C for 18 h. The optical density (OD) at 600 nm was measured using a microplate reader (ALLSHENG, Zhejiang, China) in order to determine the growth of the bacteria. The inhibition was estimated using the formula; %inhibition=OD600ofcontrol-OD600ofsample/OD600ofcontrol-OD600ofblank×100 where minimal inhibitory concentration (MIC) is defined as the minimum concentration that inhibited 90% of bacterial growth.

Data set [2] has as its system several bacterial strains. As to conditions: for MIC, over all strains tested: 18 h. The procedure: as §1
Data set [3] relates to Pseudomonas aeruginosa (ATCC 27853). As to conditions: ATCC 27853, 18 h. The procedure:
as §1

Data set [4] relates to Staphylococcus aureus (ATCC 25923). As to conditions: ATCC 25923, 18 h. The procedure:
as §1

Data set [5] relates to Staphylococcus epidermidis (ATCC 12228). As to conditions: ATCC 12228, 18 h. The procedure: as §1
Data set [6] concerns Klebsiella pneumoniae (ATCC 27736). As to conditions: ATCC 27736, 18 h. The procedure: as §1
In data set [7] the test system is Bacillus subtilis (ATCC 6633). As to conditions: ATCC 6633, 18 h. The procedure:
as §1

In data set [8] the test system is human erythrocytes. As to conditions: red cells of human, 1 h. The procedure: Human whole blood was obtained from Blood Transfusion Center Faculty of Medicine Khon Kaen University (ethical approval number HE601010). Fresh human erythrocytes were carefully mixed with PBS (1:3) and centrifuged at 1000 × g for 2 min. The supernatant was discarded and the cell pellet was resuspended to 2% w/v in PBS. 100 µL of the resuspended erythrocytes were incubated with the peptide (10 µL, final concentrations ranging from 12.5 to 100 μg/mL, two-fold serial dilution) at 37 °C for 1 h. After the treatment, the plate was centrifuged and the supernatant was taken to determine the optical density at 415 nm using a microplate reader (ALLSHENG, Zhejiang, China). The positive control for this assay was the addition of Triton X-100 (1% v/v), which causes 100% hemolysis. The negative control was cells treated with PBS buffer only. The hemolysis activity was estimated using the equation: %hemolysis=OD415ofsample/OD415ofTritonX-100treatedcontrol×100

For data set [9], the system named is human keratinocyte cells (HaCaT). As to conditions: 24 h. The procedure:
(§2) Human peripheral blood mononuclear cells (PBMC), African green monkey kidney cells (Vero), human keratinocyte cells (HaCaT) and mouse preadipocytes (3T3-L1) were used to evaluate the cytotoxicity of peptides by the MTT assay. PBMCs were isolated using Ficoll medium (GE Healthcare, Uppsala, Sweden) as described by Jangpromma et al.[28]. The PBMCs were then cultured in RPMI 1640, while Vero, HaCaT and 3T3-L1 cells were cultured in DMEM. All culture mediums were supplemented with 10% heat-inactivated fetal bovine serum (FBS) and 1% antibiotic:antimycotic (Gibco, USA). The cells were cultured at 37 °C with 5% CO2/95% relative humidity. After that, PBMC (2 × 10^6 cells/well), Vero (1 × 10^4 cells/well), HaCaT (1 × 10^4 cells/well) and 3T3-L1 (1 × 10^4 cells/well) were individually seeded into 96-well plate and cultured at 37 °C overnight. Next, two-fold serially diluted peptides (3.13–200 μg/mL) were added to the cell culture. After incubation in 5% (v/v) CO2 incubator for 24 h, the medium culture was removed and MTT solution ([…] final concentration in fresh medium culture) was added to the cells and incubated for 30 min. Thereafter, the medium was removed and DMSO (100 µL) was added to each well to dissolve the formazan crystals. The optical density at 570 nm was determined using a microplate reader (ALLSHENG, Zhejiang, China). The cytotoxicity of IL15.3 against Vero, HaCaT and 3T3-L1 cells in the absence of FBS was also measured by the MTT assay to confirm the peptide is not sequestered by proteins in the serum causing artificially low cytotoxicity against eukaryotic cells.
(§3) Cell viability was determined using the equation: %cellviability=OD570ofsample/OD570ofuntreatedcontrol×100
(§4) GraphPad Prism8 (San Diego, CA, USA) was used to calculate IC50 values using a non-linear regression model.

In data set [10] the test system is human peripheral blood mononuclear cells (PBMC). As to conditions: 24 h. The procedure:
as §2, §3, §4

The test system of data set [11] is Escherichia coli (ATCC 25922). As to conditions: ATCC 25922, 24 h. The procedure:
as §1
(§5) In order to evaluate the minimal bactericidal concentration (MBC)—the lowest concentration that terminates the growth of bacteria on an agar plate—of the peptide, co-culture medium (100 μL) from each well after the microdilution assay was spread on a nutrient agar plate. Plates were maintained at 37 °C for 24 h and the number of colonies formed was counted to evaluate antimicrobial activity.

Data set [12] relates to Pseudomonas aeruginosa (ATCC 27853). As to conditions: ATCC 27853, 24 h. The procedure:
as §1, §5

Data set [13] has as its system Staphylococcus aureus (ATCC 25923). As to conditions: ATCC 25923, 24 h. The procedure: as §1, §5
Data set [14] concerns Staphylococcus epidermidis (ATCC 12228). As to conditions: ATCC 12228, 24 h. The procedure:
as §1, §5

The test system of data set [15] is Klebsiella pneumoniae (ATCC 27736). As to conditions: ATCC 27736, 24 h. The procedure: as §1, §5
The subject of data set [16] is Bacillus subtilis (ATCC 6633). As to conditions: ATCC 6633, 24 h. The procedure:
as §1, §5

Like-named read-outs stand apart in the source and are kept apart here. Ends that are not written are not given here.

For the sequence IIHNEKVQAHGKKVL [IL15], the MIC in [1], in data set [3], in data set [4], in data set [5], in data set [6] and in data set [7] was greater than 200 µg/mL each time. Also, in data set [2], the “MIC, over all strains tested” value is greater than 200 µg/mL. The “Hemolysis concentration50 (HC50)” value in [8] was greater than 2000 µg/mL. For the same sequence, the “IC50 HaCaT” value in [9] is greater than 200 µg/mL. In data set [10], the “IC50 PBMC” value is greater than 200 µg/mL. Also, the MBC in [11], in data set [12], in data set [13], in [14], in data set [15] and in [16] was greater than 200 µg/mL in each case.
IKHWEKVWKHGKKVL [IL15.1]: the MIC in data set [1], in [3], in [4], in data set [5], in data set [6] and in data set [7] was greater than 200 µg/mL throughout. Further, in data set [2], the “MIC, over all strains tested” value is greater than 200 µg/mL. Besides, the “Hemolysis concentration50 (HC50)” value in data set [8] was greater than 2000 µg/mL. Further, the “IC50 HaCaT” value in data set [9] is greater than 200 µg/mL. Moreover, the “IC50 PBMC” value in data set [10] is greater than 200 µg/mL. Besides, the MBC in [11], in data set [12], in data set [13], in [14], in [15] and in data set [16] was greater than 200 µg/mL in each case.
Take IKHWKKVWKHGKKVL [IL15.2]: the MIC in data set [1] is 100 µg/mL; in data set [3] it was greater than 200 µg/mL; in data set [4], greater than 200 µg/mL; in data set [5], greater than 200 µg/mL; in data set [6] it was greater than 200 µg/mL; in data set [7] it was 50 µg/mL. The “Hemolysis concentration50 (HC50)” value in [8] is greater than 2000 µg/mL. The “IC50 HaCaT” value in data set [9] is greater than 200 µg/mL. Also, the “IC50 PBMC” value in [10] was greater than 200 µg/mL. The minimal bactericidal concentration (MBC) was 150 µg/mL in data set [11]; greater than 200 µg/mL in data set [12]; greater than 200 µg/mL in data set [13]; greater than 200 µg/mL in data set [14]; greater than 200 µg/mL in [15]; 60 µg/mL in data set [16].
As for IKHWKKVWKHWKKKL [IL15.4], the MIC is 4 µg/mL in data set [1]; 10 µg/mL in data set [3]; 12 µg/mL in data set [4]; 9 µg/mL in data set [5]; 14 µg/mL in data set [6]; 6 µg/mL in [7]. Further, the results for the “increase of SI in comparison with IL15.2” value in data set [2] (towards gram-negative bacteria) and in data set [2] (towards gram-positive bacteria) were “approximately 6 fold” and roughly 25 fold, respectively. In data set [8], the “Hemolysis concentration50 (HC50)” value is greater than 2000 µg/mL. Further, the “IC50 HaCaT” value in [9] is greater than 200 µg/mL. In data set [10], the “IC50 PBMC” value is greater than 200 µg/mL. Also, the MBC in data set [11] is 6 µg/mL; in data set [12] it was 14 µg/mL; in data set [13] it was 25 µg/mL; in data set [14] it was 12 µg/mL; in data set [15] it was 50 µg/mL; in data set [16], 10 µg/mL.
IRHWRRVWRHWRRRL [IL15.5]: the MIC in [1] turned out to be 15 µg/mL; in data set [3], 35 µg/mL; in data set [4], 25 µg/mL; in data set [5], 12 µg/mL; in data set [6], 75 µg/mL; in [7], 8 µg/mL. In addition, the “MIC, over all strains tested” value in data set [2] lay in the range of 8 to 75 µg/mL. Besides, in data set [8], the “Hemolysis concentration50 (HC50)” value came out at 896 µg/mL. For the same sequence, the “IC50 HaCaT” value in [9] came to 200 µg/mL. Also, the “IC50 PBMC” value in data set [10] worked out at 113 µg/mL. In addition, the MBC came to 25 µg/mL in data set [11]; 50 µg/mL in [12]; 50 µg/mL in data set [13]; 15 µg/mL in data set [14]; 100 µg/mL in data set [15]; 12 µg/mL in data set [16].
Consider QAIIHNEKVQAHGKKVL [QL17], for which the MIC in [1], in data set [3], in data set [4], in data set [5], in data set [6] and in [7] was greater than 200 µg/mL each time. Besides, the “MIC, over all strains tested” value in data set [2] is greater than 200 µg/mL. Also, the “Hemolysis concentration50 (HC50)” value in data set [8] was greater than 2000 µg/mL. The “IC50 HaCaT” value in data set [9] is greater than 200 µg/mL. In addition, the “IC50 PBMC” value in [10] is greater than 200 µg/mL. Moreover, the minimal bactericidal concentration (MBC) in data set [11], in data set [12], in [13], in data set [14], in data set [15] and in [16] was greater than 200 µg/mL each time.
